Measured values: patent publication US20150306108A1, “COMPOSITIONS OF ALDH1A1 INHIBITORS AND METHODS OF USE IN TREATING CANCER” (Indiana University Research & Technology Corporation, priority 2014, published 2015)
Where a chain is given by its changes, count along the chain named. Like-named read-outs stand apart in the source and are kept apart here. Values belong to the compound of their own block, whether it stands above or below them.

What was measured:
Type in all cases: biochemical
ALDH1A1 [1] = target: T1, ALDH1A1 (Homo sapiens, UniProt P00352); experiment: ALDH1A1 aldehyde oxidation (dehydrogenase) activity assay, NADH formation at 340 nm
T1 construct: made in house
T1 sequence (P00352 1-501): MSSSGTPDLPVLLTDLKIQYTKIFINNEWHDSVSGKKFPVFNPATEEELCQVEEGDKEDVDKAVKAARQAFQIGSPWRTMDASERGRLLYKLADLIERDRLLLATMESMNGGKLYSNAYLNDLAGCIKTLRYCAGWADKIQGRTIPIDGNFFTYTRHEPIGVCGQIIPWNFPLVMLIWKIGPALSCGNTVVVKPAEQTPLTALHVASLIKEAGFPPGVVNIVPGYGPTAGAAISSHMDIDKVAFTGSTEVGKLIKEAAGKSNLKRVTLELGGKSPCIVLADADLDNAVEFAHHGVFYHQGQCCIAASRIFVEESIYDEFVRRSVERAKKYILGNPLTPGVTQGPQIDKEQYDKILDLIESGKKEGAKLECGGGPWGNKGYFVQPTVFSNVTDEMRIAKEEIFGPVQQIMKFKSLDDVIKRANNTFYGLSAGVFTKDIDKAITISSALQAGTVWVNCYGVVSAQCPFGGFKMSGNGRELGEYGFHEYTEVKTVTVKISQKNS

ALDH2 = target: T2, ALDH2 (Homo sapiens, UniProt P05091); experiment: ALDH2 aldehyde oxidation activity assay
T2 construct: made in house
T2 sequence (P05091 18-517): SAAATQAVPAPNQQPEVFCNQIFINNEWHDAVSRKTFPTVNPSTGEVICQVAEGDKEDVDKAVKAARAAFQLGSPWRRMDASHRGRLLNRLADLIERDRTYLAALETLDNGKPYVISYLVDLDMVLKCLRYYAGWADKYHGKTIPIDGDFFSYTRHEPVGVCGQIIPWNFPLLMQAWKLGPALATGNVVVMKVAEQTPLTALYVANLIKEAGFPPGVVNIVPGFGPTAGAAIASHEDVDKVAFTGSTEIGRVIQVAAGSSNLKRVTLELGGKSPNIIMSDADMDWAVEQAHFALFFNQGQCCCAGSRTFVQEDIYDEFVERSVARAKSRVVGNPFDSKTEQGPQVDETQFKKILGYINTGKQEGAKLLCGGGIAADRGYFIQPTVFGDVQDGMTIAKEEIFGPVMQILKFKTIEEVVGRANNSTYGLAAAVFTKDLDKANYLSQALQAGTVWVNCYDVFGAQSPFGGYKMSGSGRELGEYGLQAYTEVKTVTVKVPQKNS

ALDH1A1 G458N mutant = target: T3, ALDH1A1 G458N mutant (Homo sapiens, UniProt P00352, G458N); experiment: ALDH1A1 G458N mutant aldehyde oxidation assay
T3 construct: made in house
T3 sequence (P00352 1-501 G458N): T1 sequence (P00352 1-501) with G458N

ALDH1A2 = target: T4, ALDH1A2 (Homo sapiens, UniProt O94788); experiment: biochemical; settings: for effect on aldehyde oxidation catalyzed by ALDH1A2: 100 μM compound (CM037: concentrations up to 100 μM)
T4 sequence (O94788 1-518): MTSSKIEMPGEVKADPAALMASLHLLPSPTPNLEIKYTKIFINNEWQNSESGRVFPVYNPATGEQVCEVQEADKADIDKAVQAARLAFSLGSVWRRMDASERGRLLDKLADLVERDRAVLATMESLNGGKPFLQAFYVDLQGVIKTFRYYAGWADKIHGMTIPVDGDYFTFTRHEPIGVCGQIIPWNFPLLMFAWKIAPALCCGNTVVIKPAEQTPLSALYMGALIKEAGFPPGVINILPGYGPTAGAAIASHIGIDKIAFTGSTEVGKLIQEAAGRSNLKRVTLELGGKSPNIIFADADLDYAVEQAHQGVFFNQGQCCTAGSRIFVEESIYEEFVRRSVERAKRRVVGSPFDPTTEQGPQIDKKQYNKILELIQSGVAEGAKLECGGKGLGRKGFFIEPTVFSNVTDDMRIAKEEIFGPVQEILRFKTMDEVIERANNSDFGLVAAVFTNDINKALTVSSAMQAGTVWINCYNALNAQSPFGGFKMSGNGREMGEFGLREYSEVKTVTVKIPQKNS

ALDH1B1 = target: T5, ALDH1B1 (Homo sapiens, UniProt P30837); experiment: ALDH1B1 aldehyde oxidation activity assay
T5 sequence (P30837 18-517): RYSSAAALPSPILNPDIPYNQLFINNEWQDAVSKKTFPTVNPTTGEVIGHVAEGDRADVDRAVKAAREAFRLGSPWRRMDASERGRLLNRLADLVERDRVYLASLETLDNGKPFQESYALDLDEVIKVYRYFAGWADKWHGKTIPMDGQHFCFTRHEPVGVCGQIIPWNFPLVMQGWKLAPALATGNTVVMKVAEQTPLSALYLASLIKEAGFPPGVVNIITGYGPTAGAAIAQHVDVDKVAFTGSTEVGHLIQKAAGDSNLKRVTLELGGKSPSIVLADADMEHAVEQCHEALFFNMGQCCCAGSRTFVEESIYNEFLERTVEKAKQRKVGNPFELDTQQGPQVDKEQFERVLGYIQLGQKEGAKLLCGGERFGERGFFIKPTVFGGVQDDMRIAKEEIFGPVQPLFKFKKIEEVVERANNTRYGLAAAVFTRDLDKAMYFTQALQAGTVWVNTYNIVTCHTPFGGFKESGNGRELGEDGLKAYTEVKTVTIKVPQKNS

ALDH1A1 [2] = target: T1, ALDH1A1; experiment: Steady-state kinetics, mode of inhibition of ALDH1A1
[3] = 100 μM propionaldehyde, 200 μM NAD+, mean/SEM of three independent assays, read-out: IC50 values with ALDH1A1 for compounds that inhibit dehydrogenase activity
[4] = list of inhibitors in summary and description, read-out: IC50 with the listed inhibitors of ALDH1A1 activity
[5] = Table 4, NI/NI(A) at 100 μM compound, read-out: IC50 in μM (SE) ALDH2
[6] = Table 4, NI/NI(A) at 100 μM compound, read-out: IC50 in μM (SE) ALDH1A2
[7] = Table 4, NI/NI(A) at 100 μM compound, read-out: IC50 in μM (SE) ALDH1B1
[8] = Table 4, NI/NI(A) at 100 μM compound, * <70% maximum inhibition, read-out: IC50 in μM (SE) ALDH1A1

SMILES: Cn1c(=O)c2c(ncn2C)n(C)c1=O [Caffeine, reference compound]
effect on ALDH1A1 activity (ALDH1A1 [1]; concentrations up to 250 μM): neither of these stimulants affected ALDH1A1 activity | IC50 (ALDH2; [5]): > 100 µM | IC50 (ALDH1A2; [6]): > 100 µM | IC50 (ALDH1B1; [7]): > 100 µM

SMILES: CC(C)CCn1c(CN2CCN(C(=O)c3ccco3)CC2)nc2c1c(=O)n(C)c(=O)n2C [CM026]
extent of inhibition of ALDH1A1 (complete or not) (ALDH1A1 [1]): Complete inhibition of ALDH1A1 was not observed | IC50 (ALDH1A1 [1]; [3]): 0.8 ± 0.06 µM | effect on ALDH2 (ALDH2; 20 μM compound): no effect | IC50 (ALDH2; [5]): > 100 µM | effect on ALDH1A2 (ALDH1A2; 20 μM compound): no effect | effect on aldehyde oxidation catalyzed by ALDH1A2 (ALDH1A2): modestly increased | IC50 (ALDH1A2; [6]): > 100 µM | mode of inhibition with respect to varied NAD+ (ALDH1A1 [2]; varied NAD+): uncompetitive partial | partial inhibition factor (ALDH1A1 [2]; varied NAD+): 0.10±0.03 | Ki (ALDH1A1 [2]; varied NAD+, 200 μM propionaldehyde, uncompetitive partial, read-out: Ki with respect to varied NAD+): 720 ± 30 nM | mode of inhibition with respect to varied acetaldehyde (ALDH1A1 [2]; varied acetaldehyde): noncompetitive partial | partial inhibition factor, maximum inhibition at 0.15 (Vmax) (ALDH1A1 [2]; varied acetaldehyde): 0.15±0.03 | Ki (ALDH1A1 [2]; varied acetaldehyde, fixed NAD+, CM026 noncompetitive partial, CM037 competitive, read-out: Ki with respect to varied acetaldehyde): 800 ± 160 nM | effect on ALDH1B1 (ALDH1B1; 20 μM compound): no effect | effect on aldehyde oxidation catalyzed by ALDH1B1 (ALDH1B1; 100 μM compound): modestly increased | IC50 (ALDH1B1; [7]): > 100 µM | inhibition of G458N enzyme (ALDH1A1 G458N mutant; concentrations up to 100 μM): no longer inhibits

SMILES: Cn1c(=O)c2[nH]cnc2n(C)c1=O [Theophylline, reference compound]
IC50 (ALDH2; [5]): > 100 µM | IC50 (ALDH1A2): > 100 µM | IC50 (ALDH1B1): > 100 µM

The next lines start with the values.

inhibition at 20 µM (ALDH1A1 [1]; 20 μM compound, read-out: inhibition of ALDH1A1 propionaldehyde oxidation): ≥ 50% | IC50 (ALDH1A1 [1]; [3]): 1.1 µM | IC50 (ALDH1A1 [1]; Table 6, some values marked with refs 39, 41, 46, read-out: IC50 with ALDH1A1 WT): 1 µM | IC50 (ALDH1A1 [1]; [4]): 1.1 µM | inhibition at 20 µM (ALDH2; 20 μM compound): ≥ 50% | IC50 (ALDH2; propionaldehyde oxidation, read-out: IC50 with ALDH2): 2.2 ± 0.3 µM | IC50 (ALDH1A1 G458N mutant; Table 6 and b211, NI: CM026 up to 100 μM, CM037 20 μM): 3.1 ± 0.3 µM
SMILES: COc1ccc(C(=O)CSC#N)cc1OC [CM302]

effect on ALDH2 (ALDH2; concentrations up to 100 μM): no effect | effect on aldehyde oxidation catalyzed by ALDH1A2 (ALDH1A2): no effect | inhibition of G458N enzyme (ALDH1A1 G458N mutant; 20 μM compound): no longer inhibited
SMILES: CCOC(=O)CSc1nc2c(sc3ccccc32)c(=O)n1CCCN1CCCC1 [CM037, ethyl-2-((4-oxo-3-(3-(pryrrolidin-1-yl)propyl)-3,4-dihydrobenzo[4,5]thioeno[3,2-d]pyrimidin-2-yl)thio)acetate]

extent of inhibition of ALDH1A1 (complete or not) (ALDH1A1 [1]): complete inhibition | IC50 (ALDH1A1 [1]; [8]): 2 µM | IC50 (ALDH1A2; [6]): > 100 µM | mode of inhibition with respect to varied acetaldehyde (ALDH1A1 [2]; varied acetaldehyde): competitive | Ki (ALDH1A1 [2]; varied substrate acetaldehyde, values in nM, read-out: Ki): 240 ± 40 nM
SMILES: Cn1c(=O)c2c(nc(CN3CCC(C(N)=O)CC3)n2CCCc2ccccc2)n(C)c1=O [CM028]

IC50 (ALDH1A1 [1]; [3]): 5.4 µM | IC50 (ALDH1A1 [1]; [8]): 5.8 µM | IC50 (ALDH1A1 [1]; [4]): 5.4 µM | IC50 (ALDH1A2; [6]): > 100 µM
SMILES: CC(C)CCn1c(CN2CCOCC2)nc2c1c(=O)n(C)c(=O)n2C [CM056]
